Data: patent publication US20230233566A1, “INHIBITION OF BMI1 ELIMINATES CANCER STEM CELLS AND ACTIVATES ANTITUMOR IMMUNITY” (The Regents of the University of California, priority 2020, published 2023)

Experiments:
[1] = tested on: pIRF3; assay: pIRF3 immunofluorescent staining in 4NQO-induced HNSCC; parameters: species or system mouse; settings: 4NQO-induced HNSCC in vivo
[2] = tested on: cGAS-STING-IRF3 signaling; assay: Western blot of phosphorylated STING, TBK1, IRF3; assay type: cell-based, human
Procedure: Cells were lysed using the radioimmunoprecipitation assay (RIPA) buffer (Sigma-Aldrich, Cat #R0278) added with a cocktail of protease inhibitors (Thermo Fisher Scientific, Cat ##78430) and phosphatase inhibitors (Sigma-Aldrich, Cat #4906845001). Protein extracts were resolved on a 10% or 15% SDS polyacrylamide gel and then transferred to a polyvinylidene difluoride membrane. Membranes were blocked with 5% milk for 1 h and incubated with primary antibodies overnight at 4° C. Primary antibodies used in this study were: anti-phospho-STING (Ser366) (1:1,000; Cell Signaling Technology, Cat #19781), anti-STING (1:1,000; Cell Signaling Technology, Cat #13647), anti-phospho-TBK1 (Ser172) (1:1,000; Cell Signaling Technology, Cat #5483), anti-TBK1 (1:1,000; Cell Signaling Technology, Cat #3504), anti-phospho-IRF3 (Ser396) (1:1,000; Cell Signaling Technology, Cat #29047), anti-IRF3 (1:1,000; Cell Signaling Technology, Cat #4302), anti-BMI1 (1:1,000; Cell Signaling Technology, Cat #6964), anti-Ubiquityl-Histone H2A (Lys119) (1:1000, Cell Signaling Technology, Cat #8240), anti-phospho Histone H2A.X (Ser139) (1:1000; Cell Signaling Technology, Cat #9718), and anti-GAPDH (1:1000; Cell Signaling Technology, Cat #5174), anti-Histone H3 (1:2,000; Cell Signaling Technology, Cat #4499). The signals were detected using the Clarity Western ECL kit (Bio-Rad, Cat #1705060). To measure the protein levels of CCL5, CXCL9, CXCL10 and CXCL11, cells were treated with PTC209 or shBMI1 knockdown for 48 hr. After treatment, supernatants were collected, and the protein levels of CCL5, CXCL9, CXCL10 and CXCL11 were measured with ELISA (R&D Systems, Cat #DRN00B, DCX900, DIP100, DCX110) according to the manufacturer's instructions.

[3] = tested on: SOX2+ CSCs; assay type: in vivo, mouse; settings: only strongly stained cells counted
[4] = tested on: HNSCC tumor cells; assay: Anti-active caspase-3 (Ac-casp3) immunostaining of apoptosis in HNSCC; assay type: in vivo, mouse; settings: 4NQO-induced HNSCC, treated 4 weeks
Procedure: (§1) The immunocomplexes were detected and visualized using related secondary antibodies conjugated with Cy2 or Cy3 (Jackson ImmunoResearch Laboratories). […] At least three sections from each HNSCC lesions were immunostained and analyzed. Tumor cells (>150) and CD8+, Ac-casp3+ and Tomato^+ cells of these tumor cell areas were counted manually in each section. The percentage of CD8+, Ac-casp3^+ and Tomato^+ cells were calculated by dividing those cells with tumor cells and averaged from the sections.

[5] = tested on: cytosolic dsDNA; assay: Cytosolic dsDNA staining (PicoGreen/MitoTracker); assay type: cell-based, human; settings: SCC23 and SCC1 cells
Procedure: Following the treatment, SCC23 and SCC1 cells were incubated with culture media containing PicoGreen (dsDNA stain, 200-fold dilution, Thermo Fisher Scientific, Cat #P11496) and MitoTracker ([…], 100 nM, Thermo Fisher Scientific, Cat #M7512). One hour after incubation, cells were fixed with 4% paraformaldehyde for 10 min. Cells were then washed twice with PBS and stained with DAPI (Sigma-Aldrich, Cat #D9542) and mounted with SlowFade Antifade Reagents (Thermo Fisher Scientific, Cat #536937). Staining was imaged and assessed using a Leica SP5X laser scanning confocal microscope.

[6] = tested on: BMI1; assay: Western blot of BMI1 and H2AUb in SCC23 and SCC1 cells; assay type: cell-based, human
Procedure: Human SCC23 and SCC1 cells were grown in DMEM containing 10% FBS and antibiotics (streptomycin and penicillin) at 37° C. in a 5% CO2 atmosphere. To generate lentiviruses, scramble control (shCtrl, Addgene, Cat #1864; see Sarbassov et al Science 2005 Feb. 18; 307(5712):1098-101) and BMI1 specific shRNA lentiviral plasmids (shBmi1, Sigma-Aldrich, Cat #TRCN0000020156, comprising […], SEQ ID NO:35) were transfected into HEK293T cells with two helper plasmids psPAX2 (Addgene, Cat #12260) and pMD2.G (Addgene, Cat #12259). Viral supernatant was harvested 72 h after transfection and passed through a 0.45 μm filter to remove cell debris and live cells. Collected lentiviruses were used directly to infect cells with the addition of polybrene (Sigma-Aldrich, Cat #H9268), or frozen at −80° C. for later use. […]
(§2) Cells were lysed using the radioimmunoprecipitation assay (RIPA) buffer (Sigma-Aldrich, Cat #R0278) added with a cocktail of protease inhibitors (Thermo Fisher Scientific, Cat ##78430) and phosphatase inhibitors (Sigma-Aldrich, Cat #4906845001). […] The signals were detected using the Clarity Western ECL kit (Bio-Rad, Cat #1705060). […] After treatment, supernatants were collected, and the protein levels of CCL5, CXCL9, CXCL10 and CXCL11 were measured with ELISA (R&D Systems, Cat #DRN00B, DCX900, DIP100, DCX110) according to the manufacturer's instructions.

[7] = tested on: promoters of CCL5, CXCL9, CXCL10 and CXCL11; assay: ChIP-qPCR on chemokine promoters; assay type: cell-based, human; settings: SCC23 cells
Procedure: ChIP-qPCR assays were performed as previously described (Ding et al, 2013). Briefly, SCC cells were sequentially treated with dimethyl 3,3′-dithiobispropionimidate-HCl (DTBP; Cat #20665, Thermo Fisher Scientific) solution and formaldehyde, and harvested with a cell scraper. The cell pellet was lysed with ChIP lysis buffer and sonicated to generate 200-500 bp DNA fragments with a sonicator. The fragmented chromatins were immunoprecipitated with anti-BMI1 (Cell Signaling Technology, Cat #6964), anti-Ubiquityl-Histone H2A (Lys119) (Cell Signaling Technology, Cat #8240) overnight at 4° C. The precipitated DNA-chromatin products were purified with ChIP DNA clean & concentrator kit (Cat #D5205, Zymo Research) and the DNA levels were quantified by qPCR. Data is presented as the percentage of input DNA.

[8] = tested on: BMI1+ CSCs; assay: In vivo labeling and lineage tracing of Tomato+ BMI1+ CSCs; parameters: species or system mouse; settings: tamoxifen 1 day prior to sacrifice, treated 4 weeks
Procedure: as §1

[9] = tested on: BMI1; assay: BMI1 expression in HNSCC tumors by immunostaining and Western blot; assay type: in vivo, mouse; settings: immunostaining and Western blot of HNSCC tumors
Procedure: as §2, with “#4906845001). Protein extracts were resolved on a 10% or 15% SDS polyacrylamide gel and then transferred to a polyvinylidene difluoride membrane. Membranes were blocked with 5% milk for 1 h and incubated with primary antibodies overnight at 4° C.” for “#4906845001).”

## COc1cc(Br)c(Nc2nc(-c3c(C)nc4ncccn34)cs2)c(Br)c1 [PTC209, N-(2,6-dibromo-4-methoxyphenyl)-4-(2-methylimidazo[1,2-a]pyrimidin-3-yl)thiazol-2-amine]
[1]
  pIRF3 in HNSCC: significantly increased
[2]; SCC1 cells
  phosphorylation of STING (S366), TBK1 (S172) and IRF3 (S396): induction of phosphorylation of STING (S366), TBK1 (S172) and IRF3 (S396) in SCC1 cells
[2]; SCC23 cells
  phosphorylation of STING (S366), TBK1 (S172) and IRF3 (S396): induction of phosphorylation of STING (S366), TBK1 (S172) and IRF3 (S396) in SCC23 cells
[3]
  number of SOX2+ cells: significantly reduced
[4]
  apoptosis in Tomato+ BMI1+ CSCs: able to induce apoptosis in Tomato^+ CSCs
[5]
  accumulation of cytosolic dsDNA: induced the accumulation of cytosolic dsDNA
[6]
  BMI1 and H2AUb levels: reduced BMI1 and H2AUb in SCC23 and SCC1 cells in a dose-dependent manner
[7]
  levels of BMI1 on the promoters of CCL5, CXCL9, CXCL10 and CXCL11: significantly reduced the levels of BMI1 on these promoters in SCC23 cells
  levels of H2AUb marks on the promoters of CCL5, CXCL9, CXCL10 and CXCL11: significantly decreased in SCC23 cells
[8]
  BMI1+ CSCs in HNSCC (in vivo labeling): able to reduce BMI1+ CSCs
[9]
  BMI1 expression in tumors: Reduction of BMI1 expression
